Measured values: patent US20230026808A1, “COMPOUNDS, COMPOSITIONS, AND METHODS FOR TREATING ISCHEMIA-REPERFUSION INJURY AND/OR LUNG INJURY” (YALE UNIVERSITY, priority 2019, published 2023)
Entries after “also recorded” stand apart in the source; their conditions may differ.

Columns and labels:
MAP3K3 = assay: Western analysis of MAP3K3 protein content induced by fMLP in neutrophils; format: cell-based; settings: mouse neutrophils
Procedure: (§1) Mouse bone marrow neutrophils were isolated from long bones. After lysis of red blood cells (RBCs) with ACK buffer (155 mM NH4Cl, 10 mM KHCO3 and 127 μM EDTA), bone marrow cells were separated on a discontinuous Percoll gradient composed of 81%, 62%, and 45% Percoll. Neutrophils were collected at the interphase between 81% and 62% Percoll, washed in HBSS, and used for assays.

[1] = tested on: lung transplantation-induced injury; assay: Pilot clinical study in paired single lung transplantation recipients; format: in vivo, human
Text: These represent all of the patients who were eligible for single LT and consented for enrollment into the study between Mar. 1, 2018 and Aug. 31, 2018. […] The baseline characteristics, surgical information, medical records during their ICU stay, as well as ventilator parameters, arterial blood gas analysis, and chest X-ray results within 5 days after LT were collected. All of the five donors were enrolled in a voluntary organ donation program and died of accident or disease.
The chest X-ray scores were obtained in the following manner: the heart field was regarded as the center, and the lung field was divided into four quadrants. Non-opacified regions, 0 points; opacified regions limited to 1/4 lung area, 1 point; limited to 2/4 lung area, 2 points; limited to 3/4 lung area, 3 points; in all lung fields, 4 points. Scores were independently collected by a clinician and a radiologist who were blinded for the treatment, and the average was used. If the difference between the two evaluators was greater than 1 point, discussion was conducted to reach a consensus. Hypoxemia index=PaO2/FiO2, measured by arterial blood gas analysis.
In the pilot clinical study, the linear mixed model repeated measures analysis was performed to compare the hypoxemia and X-ray scores over time between two groups accounting for both within-subject correlation and correlation of paired recipients. Time by group interaction was included in the model to examine the difference in trajectory of outcomes between two groups. Linear contrast was used to compare difference at each post-transplant day, and overall mean difference between groups as well. The analysis was conducted with SAS version 9.4 (SAS Inc., Cary, N.C.). The significance was set as p<0.05, two-sided.

HCl-induced ALI = assay: Acid aspiration (HCl)-induced acute lung injury mouse model; format: in vivo; settings: for BAL cytokine contents / myeloid cell (neutrophil) infiltration in BAL and lungs: injured lungs; for phosphorylated AKT levels in lung extracts: lungs subjected to ALI, AKT S473; for effect on survival: mice lacking p47^phox in hematopoietic cells
Procedure: Mice were anaesthetized by ketamine/Xylazine ([…] and 100 mg/kg) and were secured vertically from their incisors on a custom-made mount for orotracheal instillation. A 22G catheter (Jelco, Smiths Medical) was guided 1.5 cm below the vocal cords, and 2.5 μl/g of 0.05 M HCl was instilled. Four hours after the induction of injury, 100 μl of FITC-labeled albumin (10 mg/ml) was injected via retro-orbital vein. Mice were euthanized for sample collection 6 hours after the induction of injury. For the baseline permeability measurement, saline without HCl was administered the same way. The baseline permeability measurement was subtracted in the data presented.
In survival experiments, mice received 2.5 μl/g of 0.1 M HCl orotracheally and the observation period was extended up to 30 h.
Acute lung injury indices were quantified using HE-stained lung sections. The quantification of perivascular interstitial edema was done as the ratios of perivascular interstitial edema areas to vessel areas. More than 8 sections from the same lobes of the lungs were quantified for each mouse.
Fifteen min after HCl ALI-induction, BALs were collected from the lungs. Mouse lungs were then mechanically dissociated and filtered through a 40 μm mesh to generate a single-cell suspension, and red blood cells were lysed. BAL cells, which were pelleted and resuspended, and whole lung cells were labeled for 30 minutes at 37° C. with 1 μM CM-H2-DCFDA (C6827, Invitrogen). The cells were then labeled for the surface markers (CD45; BD Bioscience 564279; Ly-6G; BD Bioscience 560602). Flow cytometry was performed on a BD LSRII.

[2] = tested on: brain ischemia-reperfusion injury (IRI); assay: Intraluminal middle cerebral artery (MCA) occlusion brain stroke mouse model; format: in vivo
in vivo = settings: rat, iv; for AUC(0-inf) / Cmax: 10 mg/kg/day
p38 phosphorylation = p38 phosphorylation in mouse neutrophils; format: cell-based
Procedure: as §1

[3] = HCl model, therapeutic modality, intranasally post injury induction
[4] = drug given during ischemic phase
[5] = given i.v. 0.5 hrs after reperfusion

For `Cc1ccc(Nc2nccc(N(C)c3ccc4c(C)n(C)nc4c3)n2)cc1S(N)(=O)=O` [pazopanib, 5-((4-((2,3-dimethyl-2H-indazol-6-yl)(methyl)amino)pyrimidin-2-yl)amino)-2-methylbenzenesulfonamide], the “increase in MAP3K3 protein content induced by fMLP” value (MAP3K3) was “abrogated the increase in MAP3K3 protein content”, the “X-ray opacity score, difference treatment vs control group” value ([1]; first day, pazopanib 200 mg oral before surgery) was 0.6 and the “X-ray opacity score, difference treatment vs control group” value ([1]; last day, pazopanib 200 mg oral before surgery) was 0.7. For the same compound, the pulmonary edema ([1]; lung transplantation-induced injury) was “significantly reduced pulmonary edema”, the “X-ray score lower than control group, on average” value ([1]; overall mean, pazopanib 200 mg oral before surgery) was 0.5 point and the mortality (HCl-induced ALI; HCl model, prophylactic, intranasally prior to injury) was “reduced”. The mortality (HCl-induced ALI; [3]) was “significant reductions; also recorded: reduces mortality”, the perivascular interstitial edema (HCl-induced ALI; [3]) was “significant reductions” and the BAL cytokine contents (HCl-induced ALI) was “did not affect”. For the same compound, the “myeloid cell (neutrophil) infiltration in BAL and lungs” value (HCl-induced ALI) was “did not affect”, the BAL cytokine contents (HCl-induced ALI; listed as Pazopanib) was “no significant effects” and the “myeloid cell (neutrophil) infiltration in BAL and lungs” value (HCl-induced ALI; listed as Pazopanib) was “no significant effects”. The “phosphorylated AKT levels in lung extracts” value (HCl-induced ALI) was “increases in phosphorylated AKT levels”, the “phosphorylated AKT levels in lung extracts” value (HCl-induced ALI; listed as Pazopanib) was “increases phosphorylation of AKT at S473” and the effect on survival (HCl-induced ALI) was “abrogated the effects of pazopanib”. The effect on survival (HCl-induced ALI; listed as Pazopanib) was “failed to increase survival”, the “ROS in neutrophils in BALs and lungs” value (HCl-induced ALI; pazopanib-treated mice subjected to HCl lung insult, DCFDA) was “elevated ROS” and the “brain IRI” value ([2]; 60 μg retro-orbital intravenous injection 30 min after reperfusion) was “reduces brain IRI”. The “brain IRI” value ([2]; 60 μg retro-orbital intravenous injection immediately after reperfusion) was “fails to reduce brain IRI”, the “infarct size of the brain” value [2, 4] was “no improvement” and the neurological score [2, 4] was “no improvement”. The infarct size [2, 5] was “less infarct size”, the neurological deficit score [2, 5] was “improved neurological deficit score” and the AUC(0-inf) (in vivo; female) was 276 µg·h/mL. It also gave a Cmax (in vivo; female) of 47 µg/mL, an AUC(0-inf) (in vivo; male) of 278 µg·h/mL and a Cmax (in vivo; male) of 55 µg/mL. For the same compound, the NOAEL at 2 weeks (in vivo) was 10 mg/kg/day, the NOAEL at 14 days (in vivo) was 10 mg/kg and the p38 phosphorylation (p38 phosphorylation) was “did not affect”.
